Experimental findings from ChEMBL document CHEMBL1130719, “Synthesis of 6(alpha, beta)-aminocholestanols as ergosterol biosynthesis inhibitors” (Bioorg Med Chem Lett, 1998) are described below.

A word on the IC50: it is the concentration at which inhibition is half-maximal.

Common to all, as to assay type: functional, organism-based
In assay [1] the test system is Saccharomyces cerevisiae. The assay can be described thus: Compound was tested for growth inhibition against Saccharomyces cerevisiae (ATCC 28383).
Assay [2] relates to Candida albicans. The assay can be described thus: Compound was tested for growth inhibition against Candida albicans (CIP 1180.79).
Assay [3] has as its system Candida albicans. The assay can be described thus: Compound was tested for growth inhibition against Candida albicans (CIP 1180.79); Inactive over 250 uM.
Assay [4] deals with Saccharomyces cerevisiae. The assay can be described thus: Compound was tested for growth inhibition against Saccharomyces cerevisiae (ATCC 28383); Inactive over 250 uM.
Assay [5] deals with Candida albicans. The assay can be described thus: Compound was tested for growth inhibition against Candida albicans (CIP 1180.79); Slow development (>80-<100 uM).
Assay [6] relates to Saccharomyces cerevisiae. The assay can be described thus: Compound was tested for growth inhibition against Saccharomyces cerevisiae (ATCC 28383); Slow development (>80-<100 uM).

As for `CC(C)CCC[C@@H](C)C1CC[C@H]2[C@@H]3C[C@H](N)[C@H]4C[C@@H](O)CC[C@]4(C)[C@H]3CC[C@]12C` (some centres not stated), the figures for the IC50 in assay [1] and in assay [2] were less than 15 µM and less than 31 µM, respectively.

As to `CC(C)CCC[C@@H](C)C1CC[C@H]2[C@@H]3C[C@H]([N+](=O)[O-])[C@H]4C[C@@H](O)CC[C@]4(C)[C@H]3CC[C@]12C` (some centres not stated), the IC50 result in assay [3] and in assay [4] was “Not Active” throughout.

Take `CC(=O)N[C@H]1C[C@@H]2[C@H](CC[C@]3(C)C([C@H](C)CCCC(C)C)CC[C@@H]23)[C@@]2(C)CC[C@H](O)C[C@H]12` (some centres not stated): the IC50 in assay [5] and in assay [6] was greater than 80 µM in each case.

Regarding `CC(=O)N[C@@H]1C[C@@H]2[C@H](CC[C@]3(C)C([C@H](C)CCCC(C)C)CC[C@@H]23)[C@@]2(C)CC[C@H](O)C[C@H]12` (some centres not stated), the IC50 in assay [5] and in assay [6] was greater than 80 µM in each case.

For `CC(C)CCC[C@@H](C)C1CC[C@H]2[C@@H]3C[C@@H](N)C4C[C@@H](O)CC[C@]4(C)[C@H]3CC[C@]12C` (some centres not stated), the IC50 in assay [1] is less than 15 µM; in assay [2] it was less than 7 µM.

Turning to `CC(C)CCC[C@@H](C)C1CC[C@H]2[C@@H]3C[C@@H]([N+](=O)[O-])[C@H]4C[C@@H](O)CC[C@]4(C)[C@H]3CC[C@]12C` (some centres not stated), the half-maximal inhibitory concentration (IC50) result in assay [3] and in assay [4] was “Not Active” in each case.
